From ChEMBL document CHEMBL4251581, “Synthesis and antimycobacterial activity of triterpeni≿ A-ring azepanes” (Eur J Med Chem, 2018)
≈ marks a conversion by molar mass, not a printed value.

Tests used:
[1] = tested on: Mycobacterium tuberculosis; assay: Antimycobacterial activity against Mycobacterium tuberculosis H37Rv; assay type: functional, organism-based
[2] = tested on: Mycobacterium tuberculosis; assay: Antimycobacterial activity against Mycobacterium tuberculosis H37Ra by microplate alamar blue assay; assay type: functional
[3] = tested on: Mycobacterium tuberculosis; assay: Antimycobacterial activity against Mycobacterium tuberculosis H37Rv after 7 days by microplate alamar blue assay; assay type: functional; details: 168 h
[4] = tested on: Mycobacterium tuberculosis; assay: Antimycobacterial activity against Mycobacterium tuberculosis H37Rv ATCC 27294 after 5 days by microplate alamar blue assay; assay type: functional; details: H37Rv ATCC 27294, 120 h
[5] = tested on: Mycobacterium tuberculosis; assay: Antimycobacterial activity against Mycobacterium tuberculosis H37Rv ATCC 27294 by microplate alamar blue assay; assay type: functional
[6] = tested on: Mycobacterium tuberculosis; assay: Antimycobacterial activity against Mycobacterium tuberculosis H37Rv ATCC 27294 by BACTEC-460 radiometric susceptibility assay; assay type: functional

Structure (SMILES) | MIC [1] | IC50 [1] | IC90 [1] | other results
C=C(C)[C@@H]1CC[C@]2(C(=O)OC)CC[C@]3(C)[C@H](CC[C@@H]4[C@@]5(C)CCC(=O)NC(C)(C)[C@@H]5CC[C@]43C)[C@@H]12 | > 10 µM |  |  | 
COC(=O)[C@]12CC[C@@H](C(C)COC(=O)/C=C/c3ccccc3)[C@@H]1[C@H]1CC[C@@H]3[C@@]4(C)CCC(=O)NC(C)(C)[C@@H]4CC[C@@]3(C)[C@]1(C)CC2 (stereo partly specified) | > 200 µM | > 200 µM | > 200 µM | 
C=C(C)[C@@H]1CC[C@]2(CO)CC[C@]3(C)[C@H](CC[C@@H]4[C@@]5(C)CCCN(CCCN)C(C)(C)[C@@H]5CC[C@]43C)[C@@H]12 | > 10 µM |  |  | 
CC(=O)[C@@H]1CC[C@]2(CO)CC[C@]3(C)[C@H](CC[C@@H]4[C@@]5(C)CCCNC(C)(C)[C@@H]5CC[C@]43C)[C@@H]12 | 50 µM (≈ 22.2 µg/mL) | 17.7 µM | 56.9 µM | 
COc1ccc(/C=C/C(=O)OC[C@]23CCC(C)(C)C[C@@H]2C2=CC[C@@H]4[C@@]5(C)CCCNC(C)(C)[C@@H]5CC[C@@]4(C)[C@]2(C)CC3)cc1 | > 100 µM | > 100 µM | > 100 µM | 
COc1cc(/C=C/C(=O)O)ccc1O.C[C@H]1[C@H](C)CC[C@]2(C(=O)O)CC[C@]3(C)C(=CC[C@@H]4[C@@]5(C)CC[C@H](O)C(C)(C)[C@@H]5CC[C@]43C)[C@H]12 |  |  |  | MIC [2]: 3.13 µg/mL
COC(=O)[C@]12CC[C@@H](C(C)COC(=O)CCC(=O)O)[C@@H]1[C@H]1CC[C@@H]3[C@@]4(C)CCC(=O)NC(C)(C)[C@@H]4CC[C@@]3(C)[C@]1(C)CC2 (stereo partly specified) | 28 µM (≈ 16.9 µg/mL) | 23 µM | 27 µM | 
C=C(C)[C@@H]1CC[C@]2(C(=O)O)CC[C@]3(C)[C@H](CC[C@@H]4[C@@]5(C)CC[C@H](OC(=O)/C=C/c6ccc(O)cc6)C(C)(C)[C@@H]5CC[C@]43C)[C@@H]12 |  |  |  | MIC [2]: 6.25 µg/mL (≈ 10.4 µM)
C[C@H]1[C@H](C)CC[C@]2(C(=O)O)CC[C@]3(C)C(=CC[C@@H]4[C@@]5(C)CC[C@H](OC(=O)/C=C/c6ccc(O)cc6)C(C)(C)[C@@H]5CC[C@]43C)[C@H]12 |  |  |  | MIC [2]: 6.25 µg/mL (≈ 10.4 µM)
C=C(C)[C@@H]1CC[C@]2(C(=O)O)CC[C@]3(C)[C@H](CC[C@@H]4[C@@]5(C)C[C@@H](O)[C@H](O)C(C)(C)[C@@H]5CC[C@]43C)[C@@H]12 [ALPHITOLIC ACID] |  |  |  | MIC90 [3]: 12.5 µg/mL (≈ 26.4 µM)
NCC[C@H](O)C(=O)N[C@@H]1C[C@H](N)[C@@H](O[C@H]2O[C@H](CN)[C@@H](O)[C@H](O)[C@H]2O)[C@H](O)[C@H]1O[C@H]1O[C@H](CO)[C@@H](O)[C@H](N)[C@H]1O [AMIKACIN] | 0.16 µM (≈ 0.0937 µg/mL) | 0.08 µM | 0.09 µM | 
C=C(C)[C@@H]1CC[C@]2(C(=O)O)CC[C@]3(C)[C@H](CC[C@@H]4[C@@]5(C)CC[C@H](O)C(C)(C)[C@@H]5CC[C@]43C)[C@@H]12 [BETULINIC ACID] |  |  |  | MIC [4]: > 100 µg/mL; MIC [2]: 50 µg/mL (≈ 109 µM); MIC [5]: 62 µg/mL (≈ 136 µM); MIC90 [3]: 25 µg/mL (≈ 54.7 µM)
C=C(C)[C@@H]1CC[C@]2(CO)CC[C@]3(C)[C@H](CC[C@@H]4[C@@]5(C)CC[C@H](O)C(C)(C)[C@@H]5CC[C@]43C)[C@@H]12 [BETULIN] |  |  |  | MIC90 [3]: 25 to 30 µg/mL (≈ 56.5 to 67.8 µM)
N[C@@H]1CONC1=O [CYCLOSERINE] | 50 µM (≈ 5.1 µg/mL) | 20.8 µM | 33.1 µM | 
CC[C@@H](CO)NCCN[C@@H](CC)CO [ETHAMBUTOL] | 6.25 µM (≈ 1.28 µg/mL) | 1.25 µM | 1.78 µM | 
NNC(=O)c1ccncc1 [ISONIAZID] | 0.31 µM (≈ 0.0425 µg/mL) | 0.12 µM | 0.19 µM | 
C=C(C)[C@@H]1CC[C@]2(C)CC[C@]3(C)[C@H](CC[C@@H]4[C@@]5(C)CC[C@H](O)C(C)(C)[C@@H]5CC[C@]43C)[C@@H]12 [LUPEOL] |  |  |  | MIC90 [5]: > 64 µg/mL
CC1(C)CC[C@]2(C(=O)O)CC[C@]3(C)C(=CC[C@@H]4[C@@]5(C)CC[C@H](O)C(C)(C)[C@@H]5CC[C@]43C)[C@@H]2C1 [OLEANOLIC_ACID] |  |  |  | MIC [4]: 50 µg/mL (≈ 109 µM); MIC [2]: 25 µg/mL (≈ 54.7 µM)
CCc1nc(N)nc(N)c1-c1ccc(Cl)cc1 [PYRIMETHAMINE] | 50 µM (≈ 12.4 µg/mL) | 23.3 µM | 35.9 µM | 
CO[C@H]1/C=C/O[C@@]2(C)Oc3c(C)c(O)c4c(O)c(c(/C=N/N5CCN(C)CC5)c(O)c4c3C2=O)NC(=O)/C(C)=C\C=C\[C@H](C)[C@H](O)[C@@H](C)[C@@H](O)[C@@H](C)[C@H](OC(C)=O)[C@@H]1C [RIFAMPIN] | 0.04 µM (≈ 0.0329 µg/mL) | 0.02 µM | 0.03 µM | 
C[C@H]1[C@H](C)CC[C@]2(C(=O)O)CC[C@]3(C)C(=CC[C@@H]4[C@@]5(C)CC[C@H](O)C(C)(C)[C@@H]5CC[C@]43C)[C@H]12 [URSOLIC ACID] |  |  |  | MIC99 [6]: 50 µg/mL (≈ 109 µM); MIC99 [1]: 100 µg/mL (≈ 219 µM)
